Test results reported in PubChem BioAssay (NCI).
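Protocol summary: plate cells (96-well), add compound at 5 concentrations, incubate 48 h, interpolate endpoints linearly. Here, GI50 denotes the concentration required for 50% inhibition of growth. Definition used: TGI = concentration required for complete inhibition of growth.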

Key:
Assay in all cases: NCI-60 cell line screen, 48 h
UACC-257 melanoma = test system: UACC-257 melanoma
SF-268 CNS = test system: SF-268 CNS
786-0 renal = test system: 786-0 renal
SK-OV-3 ovarian = test system: SK-OV-3 ovarian
HCC-2998 colon = test system: HCC-2998 colon
HCT-15 colon = test system: HCT-15 colon
MDA-MB-435 = test system: MDA-MB-435
HOP-92 NSCLC = test system: HOP-92 NSCLC
NCI-H23 lung = test system: NCI-H23 lung
CCRF-CEM leukemia = test system: CCRF-CEM leukemia
NCI-H226 lung = test system: NCI-H226 lung
A549 NSCLC = test system: A549 NSCLC
HOP-62 NSCLC = test system: HOP-62 NSCLC
LOX IMVI melanoma = test system: LOX IMVI melanoma
MCF7 breast = test system: MCF7 breast
KM12 colon = test system: KM12 colon
EKVX NSCLC = test system: EKVX NSCLC
RPMI-8226 leukemia = test system: RPMI-8226 leukemia
K-562 leukemia = test system: K-562 leukemia
M14 melanoma = test system: M14 melanoma
MDA-MB-231 breast = test system: MDA-MB-231 breast
NCI-H460 lung = test system: NCI-H460 lung
OVCAR-8 ovarian = test system: OVCAR-8 ovarian
NCI/ADR-RES ovarian = test system: NCI/ADR-RES ovarian
SF-295 CNS = test system: SF-295 CNS
OVCAR-3 ovarian = test system: OVCAR-3 ovarian
IGROV1 ovarian = test system: IGROV1 ovarian
MALME-3M melanoma = test system: MALME-3M melanoma
BT-549 breast = test system: BT-549 breast
SK-MEL-5 melanoma = test system: SK-MEL-5 melanoma
SF-539 CNS = test system: SF-539 CNS
SK-MEL-28 melanoma = test system: SK-MEL-28 melanoma
HL-60(TB) leukemia = test system: HL-60(TB) leukemia
RXF 393 renal = test system: RXF 393 renal
SK-MEL-2 melanoma = test system: SK-MEL-2 melanoma
OVCAR-5 ovarian = test system: OVCAR-5 ovarian
ACHN renal = test system: ACHN renal
CAKI-1 renal = test system: CAKI-1 renal
HS 578T breast = test system: HS 578T breast
SW-620 colon = test system: SW-620 colon
SNB-19 CNS = test system: SNB-19 CNS
MDA-N = test system: MDA-N
T-47D breast = test system: T-47D breast
COLO 205 colon = test system: COLO 205 colon
MOLT-4 leukemia = test system: MOLT-4 leukemia
SN12C renal = test system: SN12C renal
PC-3 prostate = test system: PC-3 prostate
HCT-116 colon = test system: HCT-116 colon
UACC-62 melanoma = test system: UACC-62 melanoma
HT29 colon = test system: HT29 colon
OVCAR-4 ovarian = test system: OVCAR-4 ovarian
NCI-H522 lung = test system: NCI-H522 lung
U251 CNS = test system: U251 CNS
DU-145 prostate = test system: DU-145 prostate
A498 renal = test system: A498 renal
TK-10 renal = test system: TK-10 renal
SNB-75 CNS = test system: SNB-75 CNS
SR leukemia = test system: SR leukemia

SMILES: COc1ccc(C2SC(N)=Nc3c2c(C)nn3C(=O)c2ccccc2O)cc1 (stereo unspecified)
- TGI (UACC-257 melanoma): > 10 µM
- TGI (SF-268 CNS): > 10 µM
- TGI (786-0 renal): > 10 µM
- TGI (SK-OV-3 ovarian): > 10 µM
- TGI (HCC-2998 colon): > 10 µM
- TGI (HCT-15 colon): > 10 µM
- TGI (MDA-MB-435): > 10 µM
- TGI (HOP-92 NSCLC): > 10 µM
- TGI (NCI-H23 lung): > 10 µM
- TGI (CCRF-CEM leukemia): > 10 µM
- TGI (NCI-H226 lung): > 10 µM
- TGI (A549 NSCLC): > 10 µM
- TGI (HOP-62 NSCLC): > 10 µM
- TGI (LOX IMVI melanoma): > 10 µM
- TGI (MCF7 breast): > 10 µM
- TGI (KM12 colon): > 10 µM
- TGI (EKVX NSCLC): > 10 µM
- TGI (RPMI-8226 leukemia): 6.99 µM
- TGI (K-562 leukemia): 3.85 µM
- TGI (M14 melanoma): > 10 µM
- TGI (MDA-MB-231 breast): 9.79 µM
- TGI (NCI-H460 lung): > 10 µM
- TGI (OVCAR-8 ovarian): > 10 µM
- TGI (NCI/ADR-RES ovarian): > 10 µM
- TGI (SF-295 CNS): > 10 µM
- TGI (OVCAR-3 ovarian): 7.48 µM
- TGI (IGROV1 ovarian): > 10 µM
- TGI (MALME-3M melanoma): > 10 µM
- TGI (BT-549 breast): > 10 µM
- TGI (SK-MEL-5 melanoma): > 10 µM
- TGI (SF-539 CNS): 0.628 µM
- TGI (SK-MEL-28 melanoma): > 10 µM
- TGI (HL-60(TB) leukemia): 5.21 µM
- TGI (RXF 393 renal): > 10 µM
- TGI (SK-MEL-2 melanoma): > 10 µM
- TGI (OVCAR-5 ovarian): > 10 µM
- TGI (ACHN renal): > 10 µM
- TGI (CAKI-1 renal): > 10 µM
- TGI (HS 578T breast): > 10 µM
- TGI (SW-620 colon): > 10 µM
- TGI (SNB-19 CNS): > 10 µM
- TGI (MDA-N): > 10 µM
- TGI (T-47D breast): > 10 µM
- TGI (COLO 205 colon): > 10 µM
- TGI (MOLT-4 leukemia): > 10 µM
- TGI (SN12C renal): > 10 µM
- TGI (PC-3 prostate): > 10 µM
- TGI (HCT-116 colon): > 10 µM
- TGI (UACC-62 melanoma): > 10 µM
- TGI (HT29 colon): > 10 µM
- TGI (OVCAR-4 ovarian): > 10 µM
- TGI (NCI-H522 lung): > 10 µM
- TGI (U251 CNS): > 10 µM

SMILES: CC(=O)OCc1cnc2c3c(nc4ccccc4c13)C(=O)c1cccnc1-2
- GI50 (UACC-257 melanoma): 0.253 µM
- TGI (UACC-257 melanoma): 0.849 µM
- GI50 (SF-268 CNS): 0.0341 µM
- TGI (SF-268 CNS): 1.01 µM
- GI50 (786-0 renal): < 0.01 µM
- TGI (786-0 renal): 0.0305 µM
- GI50 (SK-OV-3 ovarian): 0.05 µM
- TGI (SK-OV-3 ovarian): 0.874 µM
- GI50 (HCC-2998 colon): 0.102 µM
- TGI (HCC-2998 colon): 0.535 µM
- GI50 (HCT-15 colon): < 0.01 µM
- TGI (HCT-15 colon): 0.127 µM
- GI50 (MDA-MB-435): 0.12 µM
- TGI (MDA-MB-435): 0.527 µM
- GI50 (HOP-92 NSCLC): 0.104 µM
- TGI (HOP-92 NSCLC): 2.77 µM
- GI50 (NCI-H23 lung): 0.118 µM
- TGI (NCI-H23 lung): 0.612 µM
- GI50 (CCRF-CEM leukemia): 0.0251 µM
- GI50 (NCI-H226 lung): < 0.015 µM
- TGI (NCI-H226 lung): 0.121 µM
- GI50 (DU-145 prostate): < 0.0187 µM
- TGI (DU-145 prostate): 0.147 µM
- GI50 (A549 NSCLC): 0.0586 µM
- TGI (A549 NSCLC): 14.9 µM
- GI50 (HOP-62 NSCLC): 0.027 µM
- TGI (HOP-62 NSCLC): 0.163 µM
- GI50 (LOX IMVI melanoma): < 0.01 µM
- TGI (LOX IMVI melanoma): 0.0517 µM
- GI50 (MCF7 breast): < 0.0118 µM
- TGI (MCF7 breast): 0.0904 µM
- GI50 (A498 renal): 0.162 µM
- TGI (A498 renal): 0.79 µM
- GI50 (KM12 colon): 0.167 µM
- TGI (KM12 colon): 0.504 µM
- GI50 (EKVX NSCLC): 0.187 µM
- TGI (EKVX NSCLC): 2.6 µM
- GI50 (RPMI-8226 leukemia): 0.168 µM
- TGI (RPMI-8226 leukemia): 0.983 µM
- GI50 (TK-10 renal): 0.0573 µM
- TGI (TK-10 renal): 0.42 µM
- GI50 (K-562 leukemia): 0.0478 µM
- GI50 (M14 melanoma): 0.0255 µM
- TGI (M14 melanoma): 0.125 µM
- GI50 (MDA-MB-231 breast): 0.131 µM
- TGI (MDA-MB-231 breast): 0.647 µM
- GI50 (NCI-H460 lung): 0.0186 µM
- TGI (NCI-H460 lung): 0.147 µM
- GI50 (OVCAR-8 ovarian): 0.0115 µM
- TGI (OVCAR-8 ovarian): 0.109 µM
- GI50 (SF-295 CNS): 0.172 µM
- TGI (SF-295 CNS): 0.751 µM
- GI50 (OVCAR-3 ovarian): 0.03 µM
- GI50 (SNB-75 CNS): 0.0683 µM
- TGI (SNB-75 CNS): 0.414 µM
- GI50 (IGROV1 ovarian): 0.124 µM
- TGI (IGROV1 ovarian): 1.89 µM
- GI50 (MALME-3M melanoma): 0.022 µM
- TGI (MALME-3M melanoma): 0.205 µM
- GI50 (BT-549 breast): 0.15 µM
- TGI (BT-549 breast): 1.76 µM
- GI50 (SK-MEL-5 melanoma): 0.0373 µM
- TGI (SK-MEL-5 melanoma): 0.106 µM
- GI50 (SF-539 CNS): < 0.0131 µM
- TGI (SF-539 CNS): 0.082 µM
- GI50 (SR leukemia): < 0.01 µM
- TGI (SR leukemia): > 100 µM
- GI50 (SK-MEL-28 melanoma): 0.174 µM
- TGI (SK-MEL-28 melanoma): 0.614 µM
- GI50 (HL-60(TB) leukemia): 0.0206 µM
- GI50 (RXF 393 renal): < 0.0343 µM
- TGI (RXF 393 renal): 0.841 µM
- GI50 (SK-MEL-2 melanoma): 0.482 µM
- TGI (SK-MEL-2 melanoma): 1.96 µM
- GI50 (OVCAR-5 ovarian): 0.435 µM
- TGI (OVCAR-5 ovarian): 2.23 µM
- GI50 (ACHN renal): < 0.01 µM
- GI50 (CAKI-1 renal): < 0.01 µM
- TGI (CAKI-1 renal): 0.15 µM
- GI50 (HS 578T breast): 0.271 µM
- TGI (HS 578T breast): 1.33 µM
- GI50 (SW-620 colon): < 0.0113 µM
- TGI (SW-620 colon): 0.5 µM
- GI50 (SNB-19 CNS): 0.0424 µM
- TGI (SNB-19 CNS): 0.959 µM
- GI50 (MDA-N): 0.11 µM
- TGI (MDA-N): 0.366 µM
- GI50 (T-47D breast): 0.827 µM
- TGI (T-47D breast): 10.5 µM
- GI50 (COLO 205 colon): 0.321 µM
- TGI (COLO 205 colon): 1.01 µM
- GI50 (MOLT-4 leukemia): 0.29 µM
- TGI (MOLT-4 leukemia): > 20.5 µM
- GI50 (SN12C renal): 0.0221 µM
- TGI (SN12C renal): 0.318 µM
- GI50 (PC-3 prostate): 0.133 µM
- TGI (PC-3 prostate): 2.42 µM
- GI50 (HCT-116 colon): < 0.01 µM
- TGI (HCT-116 colon): 0.027 µM
- GI50 (UACC-62 melanoma): 0.135 µM
- TGI (UACC-62 melanoma): 0.403 µM
- GI50 (HT29 colon): 0.193 µM
- TGI (HT29 colon): 0.634 µM
- GI50 (OVCAR-4 ovarian): 0.0329 µM
- TGI (OVCAR-4 ovarian): 0.39 µM
- GI50 (NCI-H522 lung): 0.0434 µM
- TGI (NCI-H522 lung): 0.33 µM
- GI50 (U251 CNS): 0.0237 µM
